# Assay results from US8168596B2, “Use of cycloartane compounds for treating arthritis” (NuLiv Holding Inc., priority 2008, dated 2012).
# Tests used:
# [1] = system: MMP1; experiment: Western blotting, kinase inhibitors on MMP1 protein expression induced by PMA in SW1353 cells; format: cell-based, human; details: UO126 10 μM, SP600125 25 μM, 24 h, then PMA 100 ng/mL 24 h
# Experimental: Western blotting analysis was carried out based on the following procedure. Cells were washed and lysed in 0.2 mL of lysis buffer (1% NP-40, 50 mM Tris-HCl, pH 7.4, 180 mM NaCl, 1 mM EDTA, 1 mM PMSF, 1 mM NaF, 10 mM Na3VO4) for 30 min at 4° C. After centrifugation at 17500 g for 15 min, the supernatants of cell lysate were collected. Protein concentrations of the samples were measured using the bicinchoninic acid (BCA) protein assay kit according to the manufacturer's protocol (Pierce, Rockford, Ill., USA). Equal amounts of protein samples of concentrated conditioned medium (100 μg) or cell lysate supernatants (50 μg) were mixed with an appropriate volume of 4×SDS sampling buffer and separated on a 8% SDS-PAGE gel. The protein bands separated on the SDS-PAGE gel were blotted onto a polyvinylidene fluoride (PVDF) membrane. The blotted PVDF membrane was washed twice and blocked in freshly prepared Tris-buffered saline (TBS) containing 0.1% Tween-20 and 7% skim milk (TBST) for 2 hours at room temperature. The PVDF membrane was then incubated with a primary antibody against MMP1 protein (Santa Cruz Biotechnology, Santa Cruz, Calif.) for 18 hours at 4° C. Horseradish peroxidase-conjugated anti-goat antibody was used as the secondary antibody. Signals were visualized by an enhanced chemiluminescence kit (Clonetech, Palo Alto, Calif., USA) followed by exposure to X-ray films. […]
# [2] = system: MMP1; details: UO126 10 μM, SP600125 25 μM, SB203580 5 μM, 24 h, then PMA 100 ng/mL 24 h
# Experimental: The SW1353 cells were grown at 37° C. in a humidified incubator under 5% CO2 and 95% air in the culture medium as described above. The SW1353 cells were then sub-cultured into 6-well culture plates with serum free medium at an average amount of 2×10^5 cells per well and incubated for 24 hours. Then, the SW1353 cells were treated with 10 μM UO126 (MEK1-specific inhibitor), 25 μM, SP600125 (JNK-specific inhibitor), 5 μM SB203580 (p38-specific inhibitor), or 20 μM LY294002 (PI3K kinase inhibitor), and incubated for another 24 hours. Later, the SW1353 cells were treated with 100 ng/mL PMA and again incubated for 24 hours. Finally, the SW1353 cells were under cell extraction and the cell lysate was used for further luciferase analysis and western blotting analysis.
# The SW1353 cells were grown at 37° C. in a humidified incubator under 5% CO2 and 95% air in the culture medium as described above. The SW1353 cells were then sub-cultured into 24-well culture plates and cultured for 24 hours. […] Following cell extraction, the cell lysate was centrifuged at 4° C., 20000 g for 30 minutes and then transferred to a 1.5 ml-microcentrifuge tube. Then, 100 μl buffer A (0.1 mM luciferin) and 350 μl buffer B (1 M MgSO4, 1 M Hepes (pH 7.8), 0.1 M ATP) were added into the microcentrifuge tube. The luciferase activity of final mixture was measured by a luminometer for 30 seconds.
structure (smiles),measurement,setting,value
N#CC(=C(/N)Sc1ccccc1N)/C(C#N)=C(/N)Sc1ccccc1N [UO126],protein expression by western blotting (effect of kinase inhibitors on MMP1 protein expression induced by PMA),[1],significantly reduced
same,"luciferase activity (control group 1 fold, PMA-only group 8 fold)",[2],2.6 fold
